US9345742B2, “Aminostatin derivatives for the treatment of arthrosis” (MERCK PATENT GMBH, priority 2011, dated 2016)
Numbered stars: 1 amine (or outer) side, 2 acyl side, 3 side chain; on linkers, the order of the positions; unused ones are H or OH. Square brackets hold non-standard residues; d marks the D form. Peptide text beside a SMILES is read from it. * marks the point of attachment. X1 = N[C@@H](CC(=O)[*:2])[C@H](Cc1ccccc1)N[*:1]; Abu = CC[C@H](N)C(=O)O; Boc = CC(C)(C)OC(=O)*

Assays:
[1] = target: cathepsin D isolated from the human liver (Homo sapiens (Human), UniProt P07339); assay: In-vitro fluorescence assay for identification of cathepsin D inhibitors; assay type: biochemical; conditions: cathepsin D 1.4 nM, pH 5.5; read-out: CatD assay IC50-
Sequence of cathepsin D isolated from the human liver (P07339 65-161): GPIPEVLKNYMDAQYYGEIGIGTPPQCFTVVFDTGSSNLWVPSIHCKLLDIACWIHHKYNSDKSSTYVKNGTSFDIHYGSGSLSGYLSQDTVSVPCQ
Sequence of cathepsin D isolated from the human liver (P07339 169-412): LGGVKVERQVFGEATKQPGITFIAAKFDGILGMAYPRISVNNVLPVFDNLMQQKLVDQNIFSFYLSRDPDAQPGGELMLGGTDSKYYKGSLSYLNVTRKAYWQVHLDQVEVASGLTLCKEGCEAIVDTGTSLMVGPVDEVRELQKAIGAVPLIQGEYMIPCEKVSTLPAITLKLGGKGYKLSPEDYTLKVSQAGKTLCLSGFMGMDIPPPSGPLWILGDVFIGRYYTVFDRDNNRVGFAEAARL
Method: In order to identify modulators of cathepsin D activity, a continuous enzymatic test was carried out with a synthetic peptide which carries a fluorescent group (MCA=(7-methoxycoumarin-4-yl)acetyl) which is quenched by energy transfer from a Dpn (2,4 dinitrophenyl) group on the same molecule, in Greiner 384-well nb microtitre plates. Cleavage of the peptidic substrate by cathepsin D causes an increase in the fluorescence intensity. In order to determine the efficacy of substances, the time-dependent increase in the fluorescence intensity in the presence of the substance was compared with the time-dependent increase in fluorescence in the absence of substances. The reference substance used was pepstatin A (Sigma-Aldrich). The substrate used was […](Dnp)d-R—NH2 (Enzo Life Sciences, Lörrach). The enzyme employed was cathepsin D isolated from the human liver (Sigma-Aldrich) in a final concentration of 1.4 nM. The test was carried out in 100 mM sodium acetate buffer, 1.25% (v/v) of DMSO, 0.25% (w/v) of Chaps, pH 5.5. 2 μl of each substance solution with serially diluted substance concentration were added to in each case 4 μl of cathepsin D solution and incubated at room temperature for 10 min. The reaction was started by addition of 2 μl of substrate solution (final concentration 5 μM). After carrying out a starting-point fluorescence measurement (excitation wavelength 340 nm/emission wavelength 450 nm) using an Envision multilabel reader (Perkin Elmer), the reaction was incubated at room temperature for 60 min. The amount of peptide fragment cleaved off during the reaction time was subsequently measured by determination of the increase in the fluorescence intensity at 450 nm (excitation wavelength 340 nm).

bovine explants = assay: Cartilage explant assay (pH-induced cartilage degradation, GAG liberation); assay type: cell-based; conditions: Bos taurus, 72 h, pH 5.5, 3 days
Text: In order to investigate the effect of potential cathepsin D inhibitors on cartilage degradation, a pH-induced model based on bovine explants is used. The pH of the medium in which the explants are cultivated is matched here to the pathophysiological pH of an arthrotic knee. This pH is pH 5.5. In this ex vivo model, potential cathepsin D inhibitors are subsequently investigated for their action with respect to stopping of the cartilage degradation process. If the cartilage is destroyed, glycosaminoglycans (GAGs) are released into the cell culture supernatant. The amount of GAGs liberated can be determined quantitatively with the aid of DMMB (dimethylmethylene blue hydrochloride). If sulfated GAGs are detected using dimethylmethylene blue hydrochloride, the decrease in the absorption at 633 nm is utilised. […] In order to determine the concentration, a calibration line is also recorded using chondroitin sulfate.
The bovine explants are firstly prepared. The induction of the cartilage degradation is carried out in 96-multiwell plates. One explant is cultivated per well. In each case, 200 μl of DMEM (incubation medium pH 5.5) without FBS+30 μg/ml of ascorbic acid are added. Thus negative control, explants (n=4) are incubated at pH 7.4 (without FBS). This control is not included in the calculation of the data, but instead ensures that the pH change has the desired effect on the liberation of GAG. At this point, the substances to be tested are added. No preincubation of the explants is carried out. The explants are cultivated with the corresponding substances for 3 days in the incubator at 37° C. and 7.5% CO2.
In order to investigate the effect of cathepsin D inhibitors on the liberation of GAG (glycosaminoglycan), the substances are employed in the desired concentration and cultivated for 3 days. The compounds to be tested are tested in a first experiment in a concentration of 1 μM and 1% of DMSO. Substances which have an effect of >50% on the liberation of GAG (this corresponds to <50% of the control in the Assay Explorer) are tested in the next experiment at 100 nM and 1% of DMSO. Substances which have an effect of >50% on the liberation of GAG under these conditions (this corresponds to <50% of the control in the Assay Explorer) are tested in a concentration/effect relationship. The compounds here are investigated in the following concentrations: 30 μM, 10 μM, 3 μM, 1 μM, […], 0.1 μM, 0.03 μM, 0.01 μM.
The positive control used is pepstatin A with a concentration of 0.01 μM. The assay window is defined by the control (pH 5.5), defined as 0% effect, and the control pH 5.5+0.01 μM pepstatin A, defined as 100% effect. After incubation for 3 days, the cell culture supernatants are collected and stored at −20° C. or measured directly. The amount of liberated GAG is measured photometrically.
The effect (1 value) of the respective substance in % based on the positive control (pH 5.5+0.01 μM pepstatin A) and the negative control (pH 5.5) is reported for concentrations of 1 μM and 100 nM. The value represents the average of 4 replicants. In the determination of a concentration/effect relationship, an IC50 value is reported to the database (Assay Explorer).
The cell culture supernatants (200 μl) are either measured directly or stored at −20° C. In order to ensure an accurate determination of the concentration (μg/ml of GAG in the supernatant) of GAG, the measurement values must be located in the linear region of the standard curve. In order to ensure this, various dilutions are routinely introduced (1/5, 1/10, 1/20, 1/40). The dilutions are prepared with medium and introduced automatically (Hamilton) into a 384-well plate (15 μl). 60 μl of DMMB solution are likewise added automatically (or using a multichannel pipette). A rapid colour reaction occurs, which is subsequently measured at 633 nm using a plate reader (for example Envision).

recombinant human renin = recombinant human renin (Homo sapiens (Human), UniProt P00797); assay: In-vitro fluorescence assay for identification of renin-inhibitory activity; assay type: biochemical; conditions: recombinant human renin 10 nM, pH 7.2; read-out: Renin selectivity IC50
Sequence of recombinant human renin (P00797 67-406): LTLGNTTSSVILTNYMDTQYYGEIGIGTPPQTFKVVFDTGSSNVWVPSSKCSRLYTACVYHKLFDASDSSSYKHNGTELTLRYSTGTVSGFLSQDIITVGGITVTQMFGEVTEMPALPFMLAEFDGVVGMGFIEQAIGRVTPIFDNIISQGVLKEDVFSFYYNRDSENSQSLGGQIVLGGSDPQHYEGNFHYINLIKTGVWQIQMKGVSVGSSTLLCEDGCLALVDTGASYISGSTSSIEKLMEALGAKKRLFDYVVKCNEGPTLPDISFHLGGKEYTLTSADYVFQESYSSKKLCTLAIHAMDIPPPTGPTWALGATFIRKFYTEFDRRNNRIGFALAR
Method: In order to identify modulators of renin activity, a continuous enzymatic test was carried out with a synthetic peptide which carries a fluorescent group Edans (=(5-(aminoethyl)aminonaphthalenesulfonate) which is quenched by energy transfer from a Dabcyl (4′-dimethylaminoazobenzene-4-carboxylate) group on the same molecule, in Greiner 384-well microtitre plates. Cleavage of the peptidic substrate by renin causes an increase in the fluorescence intensity. In order to determine the efficacy of substances, the time-dependent increase in the fluorescence intensity in the presence of the substance was compared with the time-dependent increase in fluorescence in the absence of substances. The reference substance used was renin inhibitor 2 (Z-Arg-Arg-Pro-Phe-His-Sta-Ile-His N-Boc-Lys methyl ester Z) (Sigma-Aldrich). The substrate used was renin FRET substrate I (DABCYL-g-Abu-[…]EDANS) (Anaspec, Fremont Calif.). The enzyme employed was recombinant human renin (Proteos, Kalamazoo, Mich.) in a final concentration of 10 nM. The test was carried out in 50 mM Mops buffer, 1.5% (v/v) of DMSO, 0.1% (w/v) of Igepal®, pH 7.2, 0.5% (w/v) of BSA. 2 μl of each substance solution with serially diluted substance concentration were added to in each case 4 μl of renin solution and incubated at room temperature for 15 min. The reaction was started by addition of 4 μl of substrate solution (final concentration 5 μM). After carrying out a starting-point fluorescence measurement (excitation wavelength 340 nm/emission wavelength 495 nm) using an Envision multilabel reader (Perkin Elmer), the reaction was incubated at 37° C. for 60 min. The amount of peptide fragment cleaved off during the reaction time was subsequently measured by determination of the increase in the fluorescence intensity at 495 nm (excitation wavelength 340 nm).

| SMILES | IC50 [1] [nM] | IC50 (bovine explants) [nM] | IC50 (recombinant human renin) [nM] |
| --- | --- | --- | --- |
| CC[C@H](NC(=O)[C@H](CC(C)C)NC(=O)OC(C)(C)C)C(=O)N[C@@H](Cc1ccccc1)[C@@H](N)CC(=O)N[C@H](C(=O)N[C@H](C(=O)OC)C(C)C)[C@@H](C)CC [Compound 1, Methyl (S)-2-((2S,3S)-2-{(3S,4S)-3-amino-4-[(S)-2-((S)-2-tert-butoxycarbonylamino-4-methylpentanoylamino)butyrylamino]-5-phenylpentanoylamino}-3-methylpentanoylamino)-3-methylbutyrate] (Boc-L[Abu][X1]IV-OMe) | 40 | 3.13 | – |
| CC[C@H](NC(=O)[C@H](CC(C)C)NC(=O)CC(C)C)C(=O)N[C@@H](Cc1ccccc1)[C@@H](N)CC(=O)NCCc1ccc2c(c1)OCO2 [Compound 5, N-(2-Benzo-1,3-dioxol-5-ylethyl)-(3S,4S)-3-amino-4-{(S)-2-[(S)-4-methyl-2-(3-methyl-butyrylamino)pentanoylamino]butyryl-amino}-5-phenylpentanamide] | 1800 | 7.73 | > 30000 |
| CC[C@H](C)[C@H](NC(=O)C[C@H](N)[C@H](Cc1ccccc1)NC(=O)[C@@H](NC(=O)CCc1ccccc1)C(C)C)C(=O)N[C@H](C(=O)OC)C(C)C [Compound 17, Methyl (S)-2-((2S,3S)-2-{(3S,4S)-3-amino-4-[(S)-3-methyl-2-(3-phenylpropionylamino)butyrylamino]-5-phenylpentanoylamino}-3-methylpentanoylamino)-3-methyl-butyrate] | – | 55.2 | – |
| CC[C@H](C)[C@H](NC(=O)C[C@H](N)[C@H](Cc1ccccc1)NC(=O)[C@@H](NC(=O)[C@H](CC(C)C)NC(=O)CC(C)C)C(C)C)C(=O)Nc1cccnc1 [Compound 25, N-[(1S,2S)-2-Methyl-1-(pyridin-3-yl-carbamoyl)butyl]-(S)-3-amino-4-{(S)-(S)-3-methyl-2-[(S)-4-methyl-2-(3-methylbutyryl-amino)pentanoylamino]butyrylamino}-5-phenylpentanamide] | 520 | 27.5 | > 30000 |
| CC[C@H](C)[C@H](NC(=O)C[C@H](N)[C@H](Cc1ccccc1)NC(=O)[C@@H](NC(=O)Cc1cccc(OC(F)(F)F)c1)C(C)C)C(=O)NCCC(C)C [Compound 36, N-[(1S,2S)-2-Methyl-1-(3-methylbutyl-carbamoyl)butyl]-(S)-3-(S)-amino-4-{(S)-3-methyl-2-[2-(3-trifluoromethoxyphenyl)-acetylamino]butyrylamino}-5-phenyl-penlanamide] | 28 | 13.8 | > 30000 |
| CC[C@H](C)[C@H](NC(=O)C[C@H](N)[C@H](Cc1ccccc1)NC(=O)[C@@H](NC(=O)Cc1cccc(OC(F)(F)F)c1)[C@@H](C)CC)C(=O)N[C@H](C(=O)O)C(C)C [Compound 37, (S)-2-[(2S,3S)-2-((3S,4S)-3-Amino-4-{(1S,4S)-3-methyl-2-[2-(3-trifluoromethoxy-phenyl)acetylamino]pentanoylamino}-5-phenylpentanoylamino)-3-methylpentanoylamino]-3-methylbutyric acid] | 3.2 | 8.2 | > 30000 |
| CC[C@H](C)[C@H](NC(=O)Cc1cccc(OC(F)(F)F)c1)C(=O)N[C@@H](Cc1ccccc1)[C@@H](N)CC(=O)N[C@H](C(=O)N[C@H](CO)C(C)C)[C@@H](C)CC [Compound 41, N-{(2S,3S)-1-[1-((S)-Hydroxymethyl)-2-methylpropylcarbamoyl]-2-methylbutyl)-3-(S)-amino-4-{(S)-(2S,3S)-3-methyl-2-[2-(3-trifluoromethoxyphenyl)acetylamino]-pentanoylamino}-5-phenylpentanamide] | 48 | – | > 30000 |
| CC(C)CC(=O)N[C@@H](CC(C)C)C(=O)N[C@H](C(=O)N[C@@H](Cc1ccccc1)[C@@H](N)CC(=O)N[C@H](COc1cccnc1)C(C)C)C(C)C [Compound 43, N-[(S)-2-Methyl-1-(pyridin-3-yloxymethyl)propyl]-(3S,4S)-3-amino-4-{(S)-3-methyl-2-[(S)-4-methyl-2-(3-methylbutyrylamino)-pentanoylamino]butyrylamino}-5-phenylpentanamide] | 240 | – | > 30000 |
| CC(C)CC(=O)N[C@@H](CC(C)C)C(=O)N[C@H](C(=O)N[C@@H](Cc1ccccc1)[C@@H](N)CC(=O)N[C@H](COc1ccc(F)cc1F)C(C)C)C(C)C [Compound 44, N-[(S)-1-(2,4-Difluorophenoxymethyl)-2-methylpropyl]-(3S,4S)-3-amino-4-{(S)-3-methyl-2-[(S)-4-methyl-2-(3-methylbutyryl-amino)pentanoylamino]butyrylamino}-5-phenylpentanamide] | 39 | – | > 30000 |
